EC50, CC50 and IC50 data for one compound are collected here from patent US11952365B2, “Anti-viral compounds” (Aligos Therapeutics, Inc., priority 2020, dated 2024).

Data set [1] has as its system SARS-CoV-2-GHB-03021/2020. Kind of data set: SARS-CoV-2 Infection Model in Huh7 Cells. The class given is cell-based. Conditions: SARS-CoV-2, day 4 p.i., MTS, class symbols, read-out: Huh-7 (EC50).
Data set [2] has as its system Huh7 cells. To be noted: read-out: Huh-7 (CC50), MTS, numeric bounds.
The subject of data set [3] is HeLa cells. The experiment in a line: Cytotoxicity plates without OC43 virus (cell-titer-glo). The class given is cell-based, human. To be noted: class symbols. In outline:
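Run as a virus-free counterpart of the OC43 cytopathic-effect assay. Attached HeLa cells received compound dilutions in EMEM with 2% FBS and were kept 6 days at 33 °C. Cell viability was then measured by CellTiter-Glo luminescence.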

Data set [4] deals with 3CLpro (Severe acute respiratory syndrome coronavirus 2, UniProt P0DTD1). Kind of data set: SARS-CoV-2 3CLpro protease assay (duplex, SAMDI-MS). The class given is biochemical. Further details: For the duplex assay, 3CLpro and HRV3C was added. Conditions: 3CLpro, 30 mins preincubation, class symbols; read-out: SARS-Cov-2 IC50.
The test system of data set [5] is Vero E6-eGFP cells. To be noted: read-out: VeroE6 + CP (CC50); Vero E6-eGFP cells with CP-100356, absence of virus, MTS; numeric bounds.
Data set [6] concerns human beta-coronavirus OC43. Kind of data set: microbe, parasite or virus in culture. Conditions: OC43 in HeLa cells, 6 days at 33° C., class symbols; read-out: EC50. The class given is cell-based.
Data set [7] addresses T1, human cathepsin L (Homo sapiens, UniProt P07711).
T1 construct: purchased R&D Systems
The experiment in a line: cathepsin L assay. The class given is biochemical. To be noted: 10 pM human cathepsin L, Z-FR-AMC 2 μM, class symbols. In outline:
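Reactions began by adding 2 μM (final) Z-FR-AMC substrate to 10 pM human cathepsin L that had been preincubated 30 min with inhibitor. Kinetic AMC fluorescence at 355/460 nm over 30 min at 2-min intervals; four-parameter fitting gave IC50 values.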

T1 sequence (P07711 114-333): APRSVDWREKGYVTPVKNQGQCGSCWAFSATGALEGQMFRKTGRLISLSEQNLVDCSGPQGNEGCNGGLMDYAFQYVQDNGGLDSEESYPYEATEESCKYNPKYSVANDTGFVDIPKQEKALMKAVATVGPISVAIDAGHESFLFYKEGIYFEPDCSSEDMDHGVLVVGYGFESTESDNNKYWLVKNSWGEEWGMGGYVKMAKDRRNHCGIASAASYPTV

On to `O=C1NCC[C@H]1C[C@H](NC(=O)[C@@H]1[C@H]2CCC[C@H]2CN1C(=O)c1cc2c([nH]1)C1CCC2C1)C(=O)CO` (stereo partly drawn) [Compound 157, (1S,3aR,6aS)-2-{3-azatricyclo[5.2.1.0^{2,6}]deca-2(6),4-diene-4-carbonyl}-N-[(2S)-4-hydroxy-3-oxo-1-[(3S)-2-oxopyrrolidin-3-yl]butan-2-yl]-hexahydro-1H-cyclopenta[c]pyrrole-1-carboxamide], for which the EC50 in data set [1] fell in the range of 1 to 10 µM; in data set [6], 0.1 to 1 µM. Also, the CC50 in data set [2] was over 50 µM; in data set [3], over 10 µM; in data set [5] it was over 50 µM. In addition, the IC50 in data set [4] is 0.02 to 0.2 µM; in data set [7], at least 10 µM.

The term EC50 denotes the midpoint of the concentration-response curve. What is called CC50 is the concentration giving 50% cytotoxicity. Usually IC50 stands for the midpoint of a concentration-inhibition curve.
